According to PMC12418644, “Production, optimization and characterization of esterase isolated from a new endophytic Trichoderma afroharzianum strain AUMC 16,433 and its applications in dye decolorization” (Microbial Cell Factories, 2025):

Test system: T1, T. afroharzianum esterase (purified extracellular esterase)
T1 construct: 43 kDa by SDS-PAGE and gel filtration; monomeric
Assay: p-nitrophenol release at […] nm, Lineweaver-Burk plot
Assay type: biochemical, Trichoderma afroharzianum
Conditions: 50 mM Tris pH 8, 37 °C (standard assay), 1-10 mM substrate

## CC(=O)Oc1ccc([N+](=O)[O-])cc1 [p-NPA, p-nitrophenyl acetate]
  Km: 3.33 mM
